Results as given in paper PMC9939733 (The Journal of Biological Chemistry, 2023).
Where a chain is given by its changes, count along the chain named.

Key:
Format in all cases: biochemical
[1] = target: T1, R140Q IDH2 (Homo sapiens, UniProt P48735, R140Q); assay: Absorbance assay, variant activity in the presence of equimolar 2OG (inhibition screen); conditions: 6.0 mM 2OG and 6.0 mM test compound, 0.03 μM R140Q IDH2, 50 μM NADPH
T1 construct: made in house; host or cells: Sf21 insect cells (cell pellets prepared at Evotec)
T1 sequence (P48735 40-452 R140Q): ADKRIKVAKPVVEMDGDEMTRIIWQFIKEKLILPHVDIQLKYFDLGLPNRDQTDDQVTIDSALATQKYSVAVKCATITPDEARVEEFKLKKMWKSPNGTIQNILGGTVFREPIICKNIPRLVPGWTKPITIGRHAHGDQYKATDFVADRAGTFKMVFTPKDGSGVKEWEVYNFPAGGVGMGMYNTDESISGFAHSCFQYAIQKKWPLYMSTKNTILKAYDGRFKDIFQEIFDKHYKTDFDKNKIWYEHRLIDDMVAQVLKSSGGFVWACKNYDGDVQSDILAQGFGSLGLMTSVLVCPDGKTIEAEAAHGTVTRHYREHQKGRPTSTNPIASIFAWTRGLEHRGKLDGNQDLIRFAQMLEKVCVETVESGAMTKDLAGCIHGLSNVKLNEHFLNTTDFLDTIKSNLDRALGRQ
Procedure: (§1) Compounds were dispensed using a CyBio SDW-CW CyBi-Well Simultaneous Pipettor and assay started using a ThermoFisher Multidrop Combi reagent dispenser.
(§2) Reactions were performed as technical quadruplicates.

[2] = target: T2, R172K IDH2 (Homo sapiens, UniProt P48735, R172K); assay: as above; conditions: 1.0 mM 2OG and 1.0 mM test compound, 0.03 μM R172K IDH2, 50 μM NADPH
T2 construct: made in house; host or cells: Sf21 insect cells (cell pellets prepared at Evotec)
T2 sequence (P48735 40-452 R172K): T1 sequence (P48735 40-452 R140Q) with Q101R, R133K
Procedure: as §1, §2

[3] = target: T3, WT IDH1 (Homo sapiens, UniProt O75874); assay: Absorbance assay, WT activity in the presence of equimolar DL-isocitrate (inhibition); conditions: […] isocitrate and […] test compound, 75 μM NADP+, 2.0 nM WT IDH1
T3 construct: made in house; host or cells: Escherichia coli BL21(DE3) pLyS
T3 sequence (O75874 whole entry): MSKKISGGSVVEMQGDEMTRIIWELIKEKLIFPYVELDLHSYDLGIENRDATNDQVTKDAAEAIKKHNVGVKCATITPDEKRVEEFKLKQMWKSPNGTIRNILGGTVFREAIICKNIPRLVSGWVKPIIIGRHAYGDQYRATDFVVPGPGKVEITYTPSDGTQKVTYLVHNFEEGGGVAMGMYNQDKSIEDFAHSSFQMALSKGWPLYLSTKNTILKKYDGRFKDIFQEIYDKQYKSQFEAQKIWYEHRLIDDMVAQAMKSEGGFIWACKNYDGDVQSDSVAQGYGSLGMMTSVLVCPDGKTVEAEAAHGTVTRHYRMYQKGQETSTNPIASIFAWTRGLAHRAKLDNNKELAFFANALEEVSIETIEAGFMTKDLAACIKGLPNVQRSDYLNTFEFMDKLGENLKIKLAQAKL
Procedure: as §1, §2

[4] = target: T4, WT IDH2 (Homo sapiens, UniProt P48735); assay: as above; conditions: […] isocitrate and […] test compound, 75 μM NADP+, 2.0 nM WT IDH2
T4 construct: made in house; host or cells: Sf21 insect cells (cell pellets prepared at Evotec)
T4 sequence (P48735 40-452): T1 sequence (P48735 40-452 R140Q) with Q101R
Procedure: as §1, §2

[5] = target: R132H IDH1 (Homo sapiens, UniProt O75874, R132H); assay: Absorbance assay, variant activity in the presence of equimolar 2OG (inhibition screen); parameters: made in house; host or cells: Escherichia coli BL21(DE3) pLyS; conditions: […] 2OG and […] test compound, 0.03 μM R132H IDH1, 50 μM NADPH
Sequence of R132H IDH1 (O75874 whole entry R132H): as the sequence (O75874 whole entry) above, with R132H counted along it
Procedure: as §1, §2

[6] = target: T3, WT IDH1; assay: Absorbance assay, substrate activity in the absence of DL-isocitrate; conditions: no DL-isocitrate; […] test compound, 75 μM NADP+, 2.0 nM WT IDH1; compared to DL-isocitrate
Procedure: as §1, §2

[7] = target: T4, WT IDH2; assay: as above; conditions: no DL-isocitrate; […] test compound, 75 μM NADP+, 2.0 nM WT IDH2; compared to DL-isocitrate
Procedure: as §1, §2

Row | Structure (SMILES) | activity [%] (%-substrate conversion after 20 min incubation) [1] | activity [%] (%-substrate conversion after 20 min incubation) [2] | activity [%] (%-substrate conversion after 20 min incubation) [3] | activity [%] (%-substrate conversion after 20 min incubation) [4] | activity [%] (%-substrate conversion after 20 min incubation) [5] | activity [%] (%-substrate conversion after 20 min incubation) [6] | activity [%] (%-substrate conversion after 20 min incubation) [7]
1 | O=C(O)C(=O)CC(Cc1ccc2ccccc2c1)C(=O)O (racemic) [compound 20] | 73 ± 4% | 51 ± 1% | 97±3% | 97±4% | 31 ± 2% | < 10% | < 10%
2 | O=C(O)CC(Cc1ccc(F)cc1)C(=O)C(=O)O (racemic) [compound 8] | 516 ± 40% | 106 ± 5% | 96±3% | 100±1% | 186 ± 6% | < 10% | < 10%
3 | O=C(O)C(=O)CC(CCCc1ccccc1)C(=O)O (racemic) [compound 18] | 101 ± 3% | 74 ± 12% | 101±3% | 100±1% | 82 ± 3% | < 10% | < 10%
4 | CC(C)(C)CCC(CC(=O)C(=O)O)C(=O)O (racemic) [compound 17] | 119 ± 5% | 93 ± 3% | 95±7% | 100±2% | 93 ± 3% | < 10% | < 10%
5 | COc1ccc(CC(CC(=O)O)C(=O)C(=O)O)cc1 (racemic) [compound 9] | 125 ± 3% | 111 ± 3% | 93±2% | 98±3% | 200 ± 15% | < 10% | < 10%
6 | CCCCC(CC(=O)C(=O)O)C(=O)O (racemic) [compound 16] | 131 ± 9% | 100 ± 5% | 102±3% | 100±2% | 113 ± 4% | < 10% | < 10%
7 | O=C(O)C(=O)CC(Cc1ccccc1)C(=O)O (racemic) [compound 19] | 106 ± 4% | 102 ± 5% | 98±2% | 97±3% | 116 ± 17% | < 10% | < 10%
8 | CCC(CC(=O)C(=O)O)C(=O)O (racemic) [compound 14] | 117 ± 9% | 112 ± 13% | 94±1% | 98±3% | 103 ± 2% | < 10% | < 10%
9 | O=C(O)CC(CCCc1ccccc1)C(=O)C(=O)O (racemic) [compound 6] | 239 ± 37% | 93 ± 1% | 96±1% | 99±1% | 182 ± 10% | < 10% | < 10%

More lines, now with the values ahead:

Row | activity [%] (%-substrate conversion after 20 min incubation) [1] | activity [%] (%-substrate conversion after 20 min incubation) [2] | activity [%] (%-substrate conversion after 20 min incubation) [3] | activity [%] (%-substrate conversion after 20 min incubation) [4] | activity [%] (%-substrate conversion after 20 min incubation) [5] | activity [%] (%-substrate conversion after 20 min incubation) [6] | activity [%] (%-substrate conversion after 20 min incubation) [7] | Structure (SMILES)
10 | 94 ± 3% | 110 ± 8% | 101±2% | 100±4% | 103 ± 2% | – | – | O=C(O)C(=O)c1ccc(C(=O)O)cc1 [compound 30]
11 | 394 ± 40% | 110 ± 4% | 96±1% | 95±2% | 132 ± 3% | < 10% | < 10% | O=C(O)C(=O)C1CC1C(=O)O (mixture of isomers) [compound 21]
12 | 112 ± 4% | 110 ± 10% | 96±1% | 96±1% | 92 ± 5% | – | – | CC1(C)C(C(=O)O)C1C(=O)C(=O)O (mixture of isomers) [compound 22]
13 | 114 ± 4% | – | – | 99±1% | 116 ± 4% | – | – | O=C(O)C(=O)C1C2C=CC(C2)C1C(=O)O (racemic) [compound 28]
14 | – | – | 104±6% | 92±9% | – | – | – | O=C(O)C(=O)C1CCC(C(=O)O)CC1 (mixture of isomers) [compound 25]
15 | 95 ± 7% | 93 ± 7% | 94±2% | 99±1% | 88 ± 2% | – | – | O=C(O)C(=O)c1cccc(C(=O)O)c1 [compound 29]
16 | 97 ± 4% | 104 ± 8% | 93±1% | 92±4% | 94 ± 11% | – | – | O=C(O)C(=O)C1CC=CCC1C(=O)O (mixture of isomers) [compound 27]
17 | 113 ± 4% | 99 ± 3% | 103±1% | 101±2% | 102 ± 5% | – | – | O=C(O)C(=O)c1cscc1C(=O)O [compound 31]
